The subject of one assay is CD11C and CD3 cells. Kind of assay: Interaction propensity of CD11C and CD3 cells in PBMC monolayers of a healthy donor. It counts as cell-based, human. The following applies: PBMCs of a healthy donor, various concentrations, vs DMSO control. The method, then: FIG. 10: Measured interaction propensity expressed as Log 2 interaction score of CD11c and CD3 cells after treatment with the small molecule Crizotinib.
PBMCs of a healthy donor are treated with Crizotinib or DMSO control at various concentrations and the interaction propensity of CD11C and CD3 cells in non adherent cell monolayers obtained from treated and untreated combined sample according to WO 2016/046346 determined using the present invention.

The test system of the next assay is B and NK cells. In words: Interaction propensity of B and NK cells in combined bone marrow and PBMCs of B-ALL patients. It is filed as cell-based, human. Particulars: B-ALL bone marrow plus PBMCs, vs PBS control. The text has this:
Bone marrow of a patients with B-cell acute lymphoblastic leukemia (B-ALL) and PBMCs of the same patient are combined, treated with Rituximab or PBS control and the interaction propensity of B and NK cells in non-adherent cell monolayers obtained from treated and untreated combined sample according to WO 2016/046346 determined using the present invention.

The test system of assay [1] is CD10+ positive target cells and CD3+ T-cells. In words: Interaction of CD10 positive tumour cells with T-cells in pleural effusion/PBMC monolayers of a B-cell lymphoma patient. It is filed as cell-based, human. The method, then: FIG. 12: interactions between CD10+ positive target cells, which according to pathology review comprised the tumour cells, and CD3+ T-cells were measured in a sample of a B-cell lymphoma patient in response to blinatumomab treatment for 24 h using the methods of the present invention and quantified as an interaction score. […] The different graphs show different amounts of cells isolated from pleural effusion (PE) of the patient mixed with different amounts of matched PBMCs from the same patient.
Pleural effusion from a patient with a B-cell lymphoma was collected by gradient density centrifugation. This pleural effusion consisted of a mixture of cell types found in bone marrow and PBMCs having migrated to the pleural cavity with concomitant fluid build-up and contained cancer as well as healthy cells. A matched sample of blood was also purified over Lymphoprep gradient. Cells obtained from the pleural effusion were titrated against cells from the matched PBMC samples and monolayers prepared according to WO2016/046346. Monolayers were treated with different concentrations of blinatumomab and the interaction of tumour cell populations previously determined to be CD10 positive by a pathologist with effector T-cells determined using the methods described in the present invention.

Another assay concerns B-cell lymphoma. Kind of assay: Clinical response of the B-cell lymphoma patient to treatment. It counts as in vivo, human. Particulars: one B-cell lymphoma patient given the drug.
The next assay concerns B and T cells. In words: Interaction propensity of B and T cells in combined bone marrow and PBMCs of B-ALL patients. It is filed as cell-based, human. The following applies: B-ALL bone marrow plus PBMCs, vs PBS control. The text has this: Bone marrow of a patients with B-cell acute lymphoblastic leukemia (B-ALL) and PBMCs of the same patient are combined, treated with blinatumomab or PBS control and the interaction propensity of B and T cells in non-adherent cell monolayers obtained from treated and untreated combined sample according to WO 2016/046346 determined using the present invention.

The test system of assay [2] is B (CD19 positive) and T cells (CD3 positive). In words: Interaction propensity of B (CD19 positive) and T cells (CD3 positive) in PBMC monolayers. The following applies: PBMC monolayers (healthy blood), 48 h, over PBS control (0). It is filed as cell-based, human. The text has this: FIG. 9: Measured interaction propensity expressed as Log 2 interaction score of CD3 cells to […] with increasing concentrations of the clinically approved biologic drug Blinatumomab, with media alone as a control (0). Blinatumomab has a known mechanism of action bringing together cytotoxic or other T-cells and cancerous B-cells, through this interaction, Inducing cancer cell killing and thus reducing the cancerous burden.
PBMC monolayers were provided as described in WO 2016/046346, treated with blinatumomab or PBS control (0) for 48 h, fixed, stained with fluorescently labeled CD3 and CD19 antibodies and imaged using automated confocal microscopy. Subsequently, the interaction propensity of B (CD19 positive) and T cells (CD3 positive) in the provided non-adherent cell monolayers was determined using the present invention.

In assay [3] the test system is B (CD19 positive) and NK cells (CD58 positive). Kind of assay: Interaction propensity of B (CD19 positive) and NK cells in PBMC monolayers. It is filed as cell-based, human. Particulars: 48 h, over PBS control (0). The source says: FIG. 11: Measured interaction propensity expressed as Log 2 interaction score of CD19 cells to CD56 cells with increasing concentrations of the clinically approved biologic drug Rituxidmab, with media alone as a control (0). Rituximab has a known mechanism of action bringing together NK-cells and cancerous B-cells, and through this interaction inducing cancer, reducing the cancerous burden.
PBMC monolayers were provided as described in WO 2016/046346, treated with rituximab or PBS control (0) for 48 h, fixed, stained with fluorescently labeled CD56 and CD19 antibodies and imaged using automated confocal microscopy. Subsequently, the interaction propensity of B (CD19 positive) and NK cells ([…]) in the provided non-adherent cell monolayers was determined using the present invention.

The mark [4] stands for this setting: patients not responding clinically.
The mark [5] stands for this setting: patients responding to the drug.

“Also recorded” adds a separate entry of the source.

Regarding `C[C@@H](Oc1cc(-c2cnn(C3CCNCC3)c2)cnc1N)c1c(Cl)ccc(F)c1Cl` [Crizotinib], the “interaction of DCs and T-cells as indicated by the interaction score” value in the assay with CD11C and CD3 cells is on record as “increase”.

Consider “Rituximab: anti-CD20 antibody that links B and NK cells, inducing NK cells to kill B cells”, for which the “interaction propensity between B and NK cells” value is “do not exhibit this increase” with B and NK cells (setting [4]); “increase” in the assay with B and NK cells (setting [5]).

“blinatumomab: bispecific antibody in BITE format that cross links B and T cells inducing T cells to kill B cells”: the “fraction of tumour B-cells” value in assay [1] (B-cell lymphoma patient sample, ex vivo treatment) is “did not change significantly”. Further, the “interaction of CD10 positive tumour cells with effector T-cells (interaction score)” value in assay [1] (B-cell lymphoma patient, pleural effusion cells mixed with matched PBMCs, different concentrations, 24 h) is given as “this was not the case for this patient; also recorded: no such interaction change was observed”. The “clinical response of the patient” value with B-cell lymphoma is “not to respond; also recorded: transient and weak response”. Besides, the “interaction propensity between B and T cells” value with B and T cells (setting [4]) was “do not exhibit this increase”; with B and T cells (setting [5]), “increase”; in assay [2], “increases”; in assay [2] (listed as blinatomumab) it was “increase”. Moreover, in assay [3], the “interaction propensity between B and NK cells” value was “increase”.

Source of the values: patent publication US20200064348A1, “METHODS FOR DETERMINING INTERACTION BETWEEN BIOLOGICAL CELLS” (CeMM - Forschungszentrum für Molekulare Medizin GmbH, priority 2017, published 2020).
